Assay [1] addresses Cyclin-dependent kinase 2 (Homo sapiens, UniProt P24941). As to the kind of experiment: Inhibition of recombinant CDK2 using RbING as substrate after 2 hrs by luminometric assay.
For assay [2], the target named is Tyrosine-protein kinase JAK2 (Homo sapiens, UniProt O60674). As to the kind of experiment: Inhibition of recombinant JAK2 using poly(Glu,Ala,Tyr) as substrate after 2 hrs by luminometric assay.
Assay [3] has as its target T1, Receptor-type tyrosine-protein kinase FLT3 (Homo sapiens, UniProt P36888).
T1 sequence (P36888 whole entry): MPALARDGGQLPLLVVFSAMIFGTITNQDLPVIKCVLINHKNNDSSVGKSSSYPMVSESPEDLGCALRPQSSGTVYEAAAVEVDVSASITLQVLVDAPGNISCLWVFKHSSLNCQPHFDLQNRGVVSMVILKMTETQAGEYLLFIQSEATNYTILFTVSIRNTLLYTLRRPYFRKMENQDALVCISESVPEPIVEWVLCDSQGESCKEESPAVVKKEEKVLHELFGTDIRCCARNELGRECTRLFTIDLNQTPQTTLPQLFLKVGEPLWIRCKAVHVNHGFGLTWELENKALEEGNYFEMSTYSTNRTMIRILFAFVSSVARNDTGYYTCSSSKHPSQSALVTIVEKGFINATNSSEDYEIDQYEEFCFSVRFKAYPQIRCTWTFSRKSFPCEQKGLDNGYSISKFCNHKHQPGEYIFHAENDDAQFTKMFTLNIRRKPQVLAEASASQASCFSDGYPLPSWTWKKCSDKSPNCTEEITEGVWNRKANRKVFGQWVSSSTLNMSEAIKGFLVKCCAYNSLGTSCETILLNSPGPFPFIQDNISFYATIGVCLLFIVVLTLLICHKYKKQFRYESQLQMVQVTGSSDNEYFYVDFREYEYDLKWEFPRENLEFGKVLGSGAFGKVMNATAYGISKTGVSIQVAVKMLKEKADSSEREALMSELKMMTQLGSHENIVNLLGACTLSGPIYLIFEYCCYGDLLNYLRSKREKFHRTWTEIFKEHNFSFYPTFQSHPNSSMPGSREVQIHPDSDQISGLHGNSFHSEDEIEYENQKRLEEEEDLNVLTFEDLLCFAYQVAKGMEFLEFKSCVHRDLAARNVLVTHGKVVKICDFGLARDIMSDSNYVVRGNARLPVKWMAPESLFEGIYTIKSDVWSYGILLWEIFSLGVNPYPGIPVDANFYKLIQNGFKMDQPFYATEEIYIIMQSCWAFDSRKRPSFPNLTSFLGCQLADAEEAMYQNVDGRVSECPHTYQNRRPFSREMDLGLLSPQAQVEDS
Description: Inhibition of recombinant FLT3 using poly(Glu,Tyr) as substrate after 2 hrs by luminometric assay.

In assay [4] the target is T2, Tyrosine-protein kinase JAK3 (Homo sapiens, UniProt P52333).
T2 sequence (P52333 whole entry): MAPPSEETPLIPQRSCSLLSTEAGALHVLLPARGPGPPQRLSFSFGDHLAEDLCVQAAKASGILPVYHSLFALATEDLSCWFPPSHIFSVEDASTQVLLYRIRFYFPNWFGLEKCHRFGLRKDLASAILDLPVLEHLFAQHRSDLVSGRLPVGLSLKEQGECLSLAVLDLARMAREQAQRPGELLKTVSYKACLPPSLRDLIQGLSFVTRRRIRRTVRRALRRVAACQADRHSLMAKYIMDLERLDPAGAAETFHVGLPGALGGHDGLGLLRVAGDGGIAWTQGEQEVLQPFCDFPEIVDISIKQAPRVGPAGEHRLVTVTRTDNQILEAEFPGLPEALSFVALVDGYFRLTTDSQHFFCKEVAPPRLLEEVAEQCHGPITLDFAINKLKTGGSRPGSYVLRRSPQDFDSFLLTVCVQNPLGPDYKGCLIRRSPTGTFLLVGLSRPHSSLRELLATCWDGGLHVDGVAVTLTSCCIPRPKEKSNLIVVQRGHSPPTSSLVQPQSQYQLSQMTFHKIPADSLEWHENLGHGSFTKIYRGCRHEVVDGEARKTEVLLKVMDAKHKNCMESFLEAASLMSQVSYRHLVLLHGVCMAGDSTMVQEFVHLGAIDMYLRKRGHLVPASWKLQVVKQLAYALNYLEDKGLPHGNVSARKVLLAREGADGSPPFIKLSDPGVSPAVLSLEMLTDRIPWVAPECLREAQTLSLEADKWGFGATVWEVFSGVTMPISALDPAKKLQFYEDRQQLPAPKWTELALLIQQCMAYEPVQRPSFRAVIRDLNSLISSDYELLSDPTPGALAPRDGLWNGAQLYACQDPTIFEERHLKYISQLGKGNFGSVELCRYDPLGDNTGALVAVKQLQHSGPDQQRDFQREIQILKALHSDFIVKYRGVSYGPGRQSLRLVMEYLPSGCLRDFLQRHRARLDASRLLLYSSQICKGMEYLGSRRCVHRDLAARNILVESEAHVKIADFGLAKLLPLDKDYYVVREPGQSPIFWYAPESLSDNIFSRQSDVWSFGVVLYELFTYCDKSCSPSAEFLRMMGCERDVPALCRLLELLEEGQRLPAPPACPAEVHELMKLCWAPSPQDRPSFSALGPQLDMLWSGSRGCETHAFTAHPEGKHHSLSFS
As to the kind of experiment: Inhibition of recombinant JAK3 using poly(Glu,Ala,Tyr) as substrate after 2 hrs by luminometric assay.

The target of assay [5] is Non-receptor tyrosine-protein kinase TYK2 (Homo sapiens, UniProt P29597). As to the kind of experiment: Inhibition of TYK2.
Sequence of Non-receptor tyrosine-protein kinase TYK2 (P29597 whole entry): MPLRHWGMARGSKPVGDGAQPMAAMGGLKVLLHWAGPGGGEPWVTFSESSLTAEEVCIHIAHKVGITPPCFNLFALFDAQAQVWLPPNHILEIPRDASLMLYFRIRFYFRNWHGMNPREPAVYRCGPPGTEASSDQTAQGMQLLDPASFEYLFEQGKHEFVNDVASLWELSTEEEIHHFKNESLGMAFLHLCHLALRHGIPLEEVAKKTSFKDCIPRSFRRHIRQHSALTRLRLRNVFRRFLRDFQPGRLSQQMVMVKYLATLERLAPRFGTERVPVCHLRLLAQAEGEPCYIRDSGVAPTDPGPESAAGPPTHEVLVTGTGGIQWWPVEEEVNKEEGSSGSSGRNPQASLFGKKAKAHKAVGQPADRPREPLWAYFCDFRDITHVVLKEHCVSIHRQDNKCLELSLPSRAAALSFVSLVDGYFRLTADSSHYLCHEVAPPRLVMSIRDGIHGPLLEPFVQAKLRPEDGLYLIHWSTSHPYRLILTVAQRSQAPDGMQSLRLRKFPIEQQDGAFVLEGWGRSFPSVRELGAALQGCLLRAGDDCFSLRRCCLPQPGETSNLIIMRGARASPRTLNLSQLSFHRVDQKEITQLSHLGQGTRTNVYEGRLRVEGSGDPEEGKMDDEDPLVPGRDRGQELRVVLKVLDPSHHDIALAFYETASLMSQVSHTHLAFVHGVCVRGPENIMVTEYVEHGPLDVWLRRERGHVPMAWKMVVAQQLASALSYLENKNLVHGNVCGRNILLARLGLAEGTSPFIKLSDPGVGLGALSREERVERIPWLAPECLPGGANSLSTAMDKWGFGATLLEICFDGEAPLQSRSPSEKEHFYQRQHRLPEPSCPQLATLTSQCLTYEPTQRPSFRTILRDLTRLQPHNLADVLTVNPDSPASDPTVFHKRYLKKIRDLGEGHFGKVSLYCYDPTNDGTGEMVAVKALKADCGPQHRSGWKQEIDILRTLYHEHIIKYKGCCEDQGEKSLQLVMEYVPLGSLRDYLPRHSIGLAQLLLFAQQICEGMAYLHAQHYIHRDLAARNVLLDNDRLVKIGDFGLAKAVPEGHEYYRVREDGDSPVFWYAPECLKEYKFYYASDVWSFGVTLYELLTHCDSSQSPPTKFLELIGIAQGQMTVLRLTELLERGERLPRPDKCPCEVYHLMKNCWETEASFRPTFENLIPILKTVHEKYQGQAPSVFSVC
In assay [6] the target is Tyrosine-protein kinase JAK1 (Homo sapiens, UniProt P23458). Description: Inhibition of recombinant JAK1 using poly(Glu,Ala,Tyr) as substrate after 2 hrs by luminometric assay.
Sequence of Tyrosine-protein kinase JAK1 (P23458 whole entry): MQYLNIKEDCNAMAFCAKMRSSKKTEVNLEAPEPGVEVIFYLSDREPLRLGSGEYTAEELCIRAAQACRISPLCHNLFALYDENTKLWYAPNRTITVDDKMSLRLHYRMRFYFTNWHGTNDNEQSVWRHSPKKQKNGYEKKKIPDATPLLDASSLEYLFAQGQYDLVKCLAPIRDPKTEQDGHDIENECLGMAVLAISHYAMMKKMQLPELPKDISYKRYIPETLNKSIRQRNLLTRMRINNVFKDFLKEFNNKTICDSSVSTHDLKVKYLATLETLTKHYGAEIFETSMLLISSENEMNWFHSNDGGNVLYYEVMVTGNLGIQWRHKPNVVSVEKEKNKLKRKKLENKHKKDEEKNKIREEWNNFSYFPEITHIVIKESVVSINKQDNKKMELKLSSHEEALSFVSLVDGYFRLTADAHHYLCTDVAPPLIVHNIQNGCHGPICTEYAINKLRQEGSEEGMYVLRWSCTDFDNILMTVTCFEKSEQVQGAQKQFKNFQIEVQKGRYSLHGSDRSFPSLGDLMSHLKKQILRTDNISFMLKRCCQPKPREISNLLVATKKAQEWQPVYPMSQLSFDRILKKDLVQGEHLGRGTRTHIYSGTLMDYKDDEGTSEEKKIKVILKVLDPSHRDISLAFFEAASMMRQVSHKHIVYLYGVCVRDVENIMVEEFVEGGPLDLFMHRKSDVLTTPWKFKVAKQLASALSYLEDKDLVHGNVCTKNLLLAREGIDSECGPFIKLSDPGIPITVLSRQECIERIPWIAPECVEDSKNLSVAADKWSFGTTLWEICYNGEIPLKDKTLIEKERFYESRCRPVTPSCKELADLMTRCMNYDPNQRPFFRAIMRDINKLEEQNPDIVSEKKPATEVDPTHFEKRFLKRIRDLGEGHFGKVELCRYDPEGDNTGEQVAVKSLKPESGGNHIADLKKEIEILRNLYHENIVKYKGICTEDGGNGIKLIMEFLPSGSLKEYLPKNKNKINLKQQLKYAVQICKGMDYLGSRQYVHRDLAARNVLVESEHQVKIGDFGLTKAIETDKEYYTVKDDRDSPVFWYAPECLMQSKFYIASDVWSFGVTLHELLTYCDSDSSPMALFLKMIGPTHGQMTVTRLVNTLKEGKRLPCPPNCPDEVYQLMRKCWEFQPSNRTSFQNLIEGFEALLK

From ChEMBL document CHEMBL2034857, “Discovery of the macrocycle (9E)-15-(2-(pyrrolidin-1-yl)ethoxy)-7,12,25-trioxa-19,21,24-triaza-tetracyclo[18.3.1.1(2,5).1(14,18)]hexacosa-1(24),2,4,9,14(26),15,17,20,22-nonaene (SB1578), a potent inhibitor of janus kinase 2/fms-like tyrosine kinase-3 (JAK2/FLT3) for the treatment of rheumatoid …” (J Med Chem, 2012) come the findings set out here.

Sequence of Tyrosine-protein kinase JAK2 (O60674 whole entry): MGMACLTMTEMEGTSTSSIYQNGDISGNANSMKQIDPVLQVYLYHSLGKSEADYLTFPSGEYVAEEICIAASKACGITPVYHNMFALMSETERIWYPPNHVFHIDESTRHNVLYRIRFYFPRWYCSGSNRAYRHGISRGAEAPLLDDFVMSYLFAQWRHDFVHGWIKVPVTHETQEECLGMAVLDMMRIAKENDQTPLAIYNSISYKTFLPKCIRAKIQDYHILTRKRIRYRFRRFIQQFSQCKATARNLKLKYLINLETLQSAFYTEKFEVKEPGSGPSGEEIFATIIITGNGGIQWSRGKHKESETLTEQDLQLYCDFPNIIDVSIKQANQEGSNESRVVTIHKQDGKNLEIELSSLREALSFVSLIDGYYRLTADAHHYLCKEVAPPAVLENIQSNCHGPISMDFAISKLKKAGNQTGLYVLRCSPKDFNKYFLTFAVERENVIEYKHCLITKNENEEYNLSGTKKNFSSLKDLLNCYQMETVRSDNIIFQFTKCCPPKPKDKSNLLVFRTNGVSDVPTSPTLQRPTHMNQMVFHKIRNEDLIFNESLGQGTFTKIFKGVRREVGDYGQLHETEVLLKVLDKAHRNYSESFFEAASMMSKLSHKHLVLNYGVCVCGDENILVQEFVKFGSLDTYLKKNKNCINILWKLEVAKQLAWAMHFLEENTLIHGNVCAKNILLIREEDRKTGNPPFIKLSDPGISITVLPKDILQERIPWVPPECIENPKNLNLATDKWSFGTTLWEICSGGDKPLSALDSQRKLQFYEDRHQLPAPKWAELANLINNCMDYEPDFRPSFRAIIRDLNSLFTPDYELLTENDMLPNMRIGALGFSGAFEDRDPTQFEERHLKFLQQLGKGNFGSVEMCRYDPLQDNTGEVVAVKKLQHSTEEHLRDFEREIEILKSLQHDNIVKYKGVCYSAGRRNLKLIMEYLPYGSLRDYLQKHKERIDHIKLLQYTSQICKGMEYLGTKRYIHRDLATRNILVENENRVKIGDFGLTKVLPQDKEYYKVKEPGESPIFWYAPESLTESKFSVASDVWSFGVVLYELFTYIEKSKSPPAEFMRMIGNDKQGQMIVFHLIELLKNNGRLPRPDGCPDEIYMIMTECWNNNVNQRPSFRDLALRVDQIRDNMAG

Consider `C1=C/Cn2ccc3ccc(cc32)-c2ccnc(n2)Nc2ccc(OCCN3CCCC3)c(c2)COC/1` (mixture of isomers), for which the IC50 (as a rule, the concentration that inhibits the measured activity by half) is 230 nM in assay [1], 63 nM in assay [2], 7.9 nM in assay [3] and 1.14 µM in assay [4].

Consider `COCCOc1ccc2cc1CN(C)C/C=C/COCC1=CC=C(S1)c1ccnc(n1)N2` (mixture of isomers), for which the half-inhibitory concentration (IC50) in assay [5] was 33 nM; in assay [6] it was 0.39 µM; in assay [1] it was 330 nM; in assay [2], 170 nM; in assay [3], 22 nM; in assay [4] it was more than 10 µM.

On to `C1=C/COCc2cncc(c2)-c2ccnc(n2)Nc2cccc(c2)COC/1`, for which the IC50 was 950 nM in assay [5]; more than 10 µM in assay [6]; 200 nM in assay [1]; 930 nM in assay [2]; 560 nM in assay [3]; more than 10 µM in assay [4].

In the case of `C1=C/COCc2cc(ccc2OCCN2CCCC2)Nc2nccc(n2)-c2cncc(c2)COC/1` (mixture of isomers), the IC50 in assay [5] was 630 nM; in assay [6] it was more than 10 µM; in assay [1], 3200 nM; in assay [2] it was 290 nM; in assay [3] it was 63 nM; in assay [4], 1 µM.

On to `CN1C/C=C/COCC2=CC=C(O2)c2ccnc(n2)Nc2ccc(OCCN3CCCC3)c(c2)C1` (mixture of isomers), for which the IC50 in assay [5] is 710 nM; in assay [6], 0.65 µM; in assay [1] it was 1600 nM; in assay [3] it was 120 nM; in assay [4], more than 10 µM.

As for `CN1C/C=C/CCOc2cc(ccn2)-c2ccnc(n2)Nc2cccc(c2)C1` (mixture of isomers), the IC50 in assay [5] was 65 nM; in assay [6], 0.17 µM; in assay [1], 22 nM; in assay [2] it was 260 nM; in assay [3], 310 nM; in assay [4] it was more than 10 µM.

Take `CN1C/C=C/CCn2ccc3ccc(cc32)-c2ccnc(n2)Nc2cccc(c2)C1` (mixture of isomers): the IC50 in assay [5] is 1500 nM; in assay [6], 1 µM; in assay [1] it was 77 nM; in assay [3], 93 nM; in assay [4], more than 10 µM.

With `C1=C/COCc2cc(ccc2OCCN2CCCC2)Nc2nccc(n2)-c2cc(co2)COC/1` (mixture of isomers), the half-maximal inhibitory concentration (IC50) in assay [5] was 310 nM; in assay [6], 1.9 µM; in assay [1], more than 10000 nM; in assay [2], 110 nM; in assay [3], 180 nM; in assay [4], 9.2 µM.

As for `C1=C2COC/C=C/COCc3cccc(c3)Nc3nccc(n3)C(=C1)O2` (mixture of isomers), the IC50 in assay [5] is 670 nM; in assay [6] it was 8 µM; in assay [1] it was 680 nM; in assay [2] it was 220 nM; in assay [3], 620 nM; in assay [4], more than 10 µM.

Regarding `CN1C/C=C/COCc2cncc(c2)-c2ccnc(n2)Nc2cccc(c2)C1` (mixture of isomers), the IC50 in assay [5] is 5900 nM; in assay [6] it was more than 10 µM; in assay [1] it was 420 nM; in assay [2], more than 10000 nM; in assay [3] it was 4800 nM; in assay [4], more than 10 µM.

For `C1=C/Cn2ccc3ccc(cc32)-c2ccnc(n2)Nc2cccc(c2)COC/1` (mixture of isomers), the IC50 is 4.8 µM in assay [6], 83 nM in assay [1], 73 nM in assay [3] and more than 10 µM in assay [4].

Turning to `Cc1cnc2nc1-c1ccc3ccn(c3c1)C/C=C/COCc1cc(ccc1OCCN1CCCC1)N2` (mixture of isomers), the IC50 in assay [5] is 440 nM; in assay [6], 5.1 µM; in assay [1], 2500 nM; in assay [2], 370 nM; in assay [3], 17 nM; in assay [4], more than 10 µM.

On to `COCCOc1ccc2cc1CN(C)C/C=C/COCC1=CC=C(O1)c1ccnc(n1)N2` (mixture of isomers), for which the IC50 in assay [5] was 590 nM; in assay [6], 3.2 µM; in assay [1], 8600 nM; in assay [2], 1100 nM; in assay [3] it was 1200 nM; in assay [4], more than 10 µM.
